Where a name gives a salt, the structure may show the parent alone.

For orientation: inhibition means the drop in the measured response relative to a control, in per cent. Read a high inhibition as a response far below the control.

The subject of assay [1] is spontaneously hypertensive rats of the Okamoto strain. The experiment in a line: Reduction of mean arterial blood pressure in spontaneously hypertensive rats. Format: in vivo, rat. The following applies: second identical dose at 24 h, measured at 28 h, male SHR, average MABP 160±1.5 mm of mercury. How it is done: These compounds were tested for hypotensive activity by the method of P. S. Chan and D. W. Poorvin, Clinical and Experimental Hypertension, 1 (6), 817-830 (1979). Male, 16 week old, spontaneously hypertensive rats of the Okamoto strain having an average mean arterial blood pressure of 160±1.5 mm of mercury are used in the test. One to three rats are used per test compound. The test compound is suspended in 2% pre-boiled starch at a concentration of 50 mg/ml, and a rat is dosed by gavage at a dose of 100 mg/kg of body weight or less, with 0.9% sodium chloride loading at a dose of 25 ml/kg of body weight. A second identical dose of the test compound, without sodium chloride loading, is given 24 hours later. At 28 hours after the initial dose the mean arterial blood pressure is measured by the method of Chan and Poorvin vide supra. The procedure is repeated in a second and third rat when necessary.

Assay [2] deals with T1, [^3 H]-imipramine receptor (human platelet membranes) (Homo sapiens, UniProt P31645).
T1 construct: Platelet membranes were obtained using the procedure described by Wennogle, L. P., et al; tissue New York Blood Center; host or cells: human platelets (washed, sonicated membranes)
Nature of the assay: Inhibition of [^3 H]-imipramine binding to human platelet membranes. The following applies: 10 μm test compound, 90 minutes at 0° C., duplicate, more than 50% considered active; for inhibition at 10 µM: 1.5 h. How it is done: The activity of the compounds of this invention as antidepressant agents was verified in the following test which measures the ability of a test compound to inhibit [^3 H]-imipramine binding to human platelet membranes.
Platelet membranes were obtained using the procedure described by Wennogle, L. P., et al., Pharmac. Biochem Behav., 15, 975 (1981). Fresh human platelet concentrates(less than 48 hours old) were obtained from the New York Blood Center. These concentrates were prepared in a citrate-dextrose anticoagulant using standard techniques. Platelets were washed twice by centrifugation (2500 x G, 10 minutes) in 50 volumes of an antiprotease buffer containing 0.005M potassium chloride, 0.12M sodium chloride, 0.05M Tris pH 7.5, 0.025 Units/ml aprotinin, 0.5 μg/m pepstatin, […] bacitracin, 3 mM ethylenediaminetetraacetic acid and 1.0 mM ethylene glycol-bis(β-aminoethyl ether)-N,N'-tetraacetic acid. […] All procedures were conducted at 0° C. using plastic laboratory ware throughout the platelet membrane preparation. Platelets were resuspended in 20 volumes of buffer and sonicated 3 times using 10 second bursts of a Branson sonifier (cell disrupter 350) at setting 6 (standard 3/4 inch horn), keeping the sample on ice throughout the procedure. Platelet membranes were then washed twice at 18,000 x G for 20 minutes with 50 volumes of the antiprotease buffer and resuspended to 3.0 mg protein/ml using the Bradford protein analysis with bovine gamma globulin as standard. Membranes were used immediately or stored frozen in liquid nitrogen.
The displacement of [^3 H]-imipramine binding to human platelet membranes was performed essentially as described by Paul, S. M., et al , Life Sci., 26, 953 (1980) with the following modifications. Membranes (0.3 mg protein) were suspended in antiprotease buffer with both […] [^3 H]-imipramine (New England Nuclear) and displacing drug or buffer in a total volume of 250 μl in glass test tubes. Samples were incubated for 90 minutes at 0° C., then diluted to 5 ml in […] sodium chloride, 0.005M potassium chloride, 0.05 Tris pH 7.5 (wash buffer) and immediately filtered through GF/B Whatman Filters and washed twice with 5 ml of wash buffer. Filters were counted in a liquid scintillation counter after addition of Beckman Hp Scintillant.
Non-specific binding of [^3 H]-imipramine was defined as that fraction (generally 35%) of radioactivity that was not displaced by 10 μm desmethylimipramine. Specific binding was determined by subtraction of this non-specific level from values for total [^3 H]-imipramine binding which were measured by incubating [^3 H]-imipramine in the absence of displacing drug. Compounds were tested in duplicate test tubes at a concentration of 10 μm. Compounds which inhibited binding by more than 50% were considered to be active.

T1 sequence (P31645 whole entry): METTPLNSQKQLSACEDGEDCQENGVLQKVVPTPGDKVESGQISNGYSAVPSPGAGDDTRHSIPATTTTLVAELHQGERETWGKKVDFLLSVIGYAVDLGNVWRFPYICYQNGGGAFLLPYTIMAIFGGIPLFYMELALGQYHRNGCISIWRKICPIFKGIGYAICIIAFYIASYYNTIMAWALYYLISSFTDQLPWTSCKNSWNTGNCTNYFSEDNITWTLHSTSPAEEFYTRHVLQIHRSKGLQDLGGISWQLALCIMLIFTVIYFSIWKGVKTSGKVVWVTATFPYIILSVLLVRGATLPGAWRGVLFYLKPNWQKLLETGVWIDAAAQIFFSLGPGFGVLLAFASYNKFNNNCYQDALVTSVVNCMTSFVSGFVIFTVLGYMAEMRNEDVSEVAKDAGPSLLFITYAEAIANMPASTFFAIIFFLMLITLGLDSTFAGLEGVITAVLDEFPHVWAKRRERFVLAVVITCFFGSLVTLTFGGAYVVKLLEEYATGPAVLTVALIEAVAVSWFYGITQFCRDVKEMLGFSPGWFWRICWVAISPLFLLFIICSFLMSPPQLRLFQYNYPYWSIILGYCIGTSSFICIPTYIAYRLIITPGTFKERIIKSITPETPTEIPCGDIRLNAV

As to `N#Cc1ncn2c1N(C(=O)CN1CCN(C(c3ccccc3)c3ccc(Cl)cc3)CC1)CC=C2c1cccc(C(F)(F)F)c1` (stereo not shown) [Example 10, 1-[[4-[(4-Chlorophenyl)phenylmethyl]-1-piperazinyl]acetyl]-1,2-dihydro-4-[3-(trifluoromethyl)phenyl]imidazo[1,5-a]pyrimidine-8-carbonitrile], the “MABP/mm Hg (mean arterial blood pressure)” value (shortened to “MABP/mm Hg”) in assay [1] (100 mg/kg by gavage) was determined as 137 mm Hg. In the case of `N#Cc1ncn2c1N(C(=O)CCN1CCN(c3ccc(F)cc3)CC1)CC=C2c1cccc(C(F)(F)F)c1` [Example 16, 1-[3-[4-(4-Fluorophenyl)-1-piperazinyl]-1-oxopropyl]-1,2-dihydro-4-[3-(trifluoromethyl)phenyl]imidazo[1,5-a]pyrimidine-8-carbonitrile], the “MABP/mm Hg” value in assay [1] (100 mg/kg by gavage) is reported as 110 mm Hg. In assay [2], this molecule had an inhibition at 10 µM of 78%.

`C#CCN1CCN(CC(=O)N2CC=C(c3cccc(C(F)(F)F)c3)n3cnc(C#N)c32)CC1.Cl.Cl` [Example 14, 1,2-Dihydro-1-[[4-(2-propynyl)-1-piperazinyl]acetyl]-4-[3-(trifluoromethyl)phenyl]imidazo[1,5-a]pyrimidine-8-carbonitrile, dihydrochloride]: the “MABP/mm Hg” value in assay [1] (100 mg/kg by gavage) is reported as 129 mm Hg.

In the case of `COc1cccc(CN2CCN(CC(=O)N3CC=C(c4cccc(C(F)(F)F)c4)n4cnc(C#N)c43)CC2)c1` [Example 6, 1,2-Dihydro-1-[[4-[(3-methoxyphenyl)methyl]-1-piperazinyl]acetyl]-4-[3-trifluoromethyl)phenyl]imidazo[1,5-a]pyrimidine-8-carbonitrile, dihydrochloride], in assay [2], 10 µM produced 75% inhibition. Regarding `N#Cc1ncn2c1N(C(=O)CCN1CCN(c3ccc(Cl)cc3)CC1)CC=C2c1cccc(C(F)(F)F)c1` [Example 18, 1-[3-[4-(4-Chlorophenyl)-1-piperazinyl]-1-oxopropyl]-1,2-dihydro-4-[3-(trifluoromethyl)phenyl]imidazo[1,5-a]pyrimidine-8-carbonitrile], the “MABP/mm Hg” value in assay [1] (100 mg/kg by gavage) is on record as 118 mm Hg. This molecule also displayed an inhibition at 10 µM in assay [2] of 53%.

`COc1cccc(CN2CCN(CC(=O)N3CC=C(c4cccc(C(F)(F)F)c4)n4cnc(C#N)c43)CC2)c1` [Example 5, 1,2-Dihydro-1-[[4-[(3-methoxyphenyl)methyl]-1-piperazinyl]acetyl]-4-[3-(trifluoromethyl)phenyl]imidazo[1,5-a]pyrimidine-8-carbonitrile]: the “% Inhibition of [^3 H]-imipramine binding” value in assay [2] worked out at 81%. For the molecule `N#Cc1ncn2c1N(C(=O)CCN1CCN(Cc3ccc(Cl)cc3)CC1)CC=C2c1cccc(C(F)(F)F)c1` [Example 20, 1-[3-[4-[(4-Chlorophenyl)methyl]-1-piperazinyl]-1-oxopropyl]-1,2-dihydro-4-[3-(trifluoromethyl)phenyl]imidazo[1,5-a]pyrimidine-8-carbonitrile], in assay [1] (100 mg/kg by gavage), the “MABP/mm Hg” value is recorded as 128 mm Hg. For the same molecule, in assay [2], the inhibition at 10 µM amounted to 75%.

As for `N#Cc1ncn2c1N(C(=O)CCN1CCN(CCCOc3ccccc3)CC1)CC=C2c1cccc(C(F)(F)F)c1` [Example 21, 1,2-Dihydro-1-[1-oxo-3-[4-(3-phenoxypropyl)-1-piperazinyl]propyl]-4-[3-(trifluoromethyl)phenyl]imidazo[1,5-a]pyrimidine-8-carbonitrile], at 10 µM the inhibition in assay [2] was 66%. Take `CC(C)N1CCN(CCC(=O)N2CC=C(c3cccc(C(F)(F)F)c3)n3cnc(C#N)c32)CC1` [Example 24, 1,2-Dihydro-1-[3-[4-(1-methylethyl)-1-piperazinyl]-1-oxopropyl]-4-[3-(trifluoromethyl)phenyl]imidazo[1,5-a]pyrimidine-8-carbonitrile]: the “MABP/mm Hg” value in assay [1] (50 mg/kg by gavage) was 133 mm Hg. Regarding `N#Cc1ncn2c1N(C(=O)CCN1CCN(Cc3ccccc3)CC1)CC=C2c1cccc(C(F)(F)F)c1` [Example 22, 1,2-Dihydro-1-[1-oxo-3-[(4-phenylmethyl)-1-piperazinyl]propyl]-4-[3-(trifluoromethyl)phenyl]imidazo[1,5-a]pyrimidine-8-carbonitrile], in assay [2], the inhibition at 10 µM came out at 61%. In turn, `N#Cc1ncn2c1N(C(=O)CCN1CCN(Cc3c(Cl)cccc3Cl)CC1)CC=C2c1cccc(C(F)(F)F)c1` [Example 23, 1-[4-[4-[(2,6-Dichlorophenyl)methyl]-1-piperazinyl]-1-oxopropyl]-1,2-dihydro-4-[3-(trifluoromethyl)phenyl]imidazo[1,5-a]pyrimidine-8-carbonitrile] gave an inhibition at 10 µM in assay [2] of 98%. For `N#Cc1ncn2c1N(C(=O)CN1CCN(c3ccc(Cl)cc3)CC1)CC=C2c1cccc(C(F)(F)F)c1` [Example 13, 1-[[4-(4-Chlorophenyl)-1-piperazinyl]acetyl]-1,2-dihydro-4-[3-(trifluoromethyl)phenyl]imidazo[1,5-a]pyrimidine-8-carbonitrile], the “MABP/mm Hg” value in assay [1] (100 mg/kg by gavage) is 137 mm Hg. Consider `COc1ccc(Cl)cc1NCC(=O)N1CC=C(c2cccc(C(F)(F)F)c2)n2cnc(C#N)c21` [1-[[(5-Chloro-2-methoxyphenyl)amino]acetyl]-1,2-dihydro-4-[3-(trifluoromethyl)phenyl]imidazo[1,5-a]pyrimidine-8-carbonitrile], for which, in assay [1] (100 mg/kg by gavage), the “MABP/mm Hg” value came to 135 mm Hg. Regarding `N#Cc1ncn2c1N(C(=O)CN1CCN(CCCOc3ccccc3)CC1)CC=C2c1cccc(C(F)(F)F)c1` [Example 9, 1,2-Dihydro-1-[[4-(3-phenoxypropyl)-1-piperazinyl]acetyl]-4-[3-(trifluoromethyl)phenyl]imidazo[1,5-a]pyrimidine-8-carbonitrile], the “MABP/mm Hg” value in assay [1] (100 mg/kg by gavage) was 130 mm Hg. In assay [2], this molecule displayed an inhibition at 10 µM of 50%.

Turning to `CCOC(=O)N1CCN(CCC(=O)N2CC=C(c3cccc(C(F)(F)F)c3)n3cnc(C#N)c32)CC1.Cl` [Example 19, 4-[3-[8-Cyano-4-[3-(trifluoromethyl)phenyl]imidazo[1,5-a]pyrimidine-1(2H)-yl]-3-oxopropyl]-1-piperazinecarboxylic acid, ethyl ester monohydrochloride], the “MABP/mm Hg” value in assay [1] (100 mg/kg by gavage) was 134 mm Hg. Still for that read-out and setting: with `N#Cc1ncn2c1N(C(=O)CCN1CCN(c3ccccc3)CC1)CC=C2c1cccc(C(F)(F)F)c1` [Example 17, 1,2-Dihydro-1-[1-oxo-3-(4-phenyl-1-piperazinyl]propyl]-4-[3-(trifluoromethyl)phenyl]imidazo[1,5-a]pyrimidine-8-carbonitrile] the figure was 115 mm Hg. With `N#Cc1ncn2c1N(C(=O)CN1CCC(c3ccccc3)CC1)CC=C2c1cccc(C(F)(F)F)c1` [Example 25, 1,2-Dihydro-1-[(4-phenyl-1-piperidinyl)acetyl]-4-[3-(trifluoromethyl)phenyl]imidazo[1,5-a]pyrimidine-8-carbonitrile], the “MABP/mm Hg” value in assay [1] (100 mg/kg by gavage) came out at 137 mm Hg. In turn, `N#Cc1ncn2c1N(C(=O)CN1CCN(Cc3ccc(Cl)cc3)CC1)CC=C2c1cccc(C(F)(F)F)c1` [Example 11, 1-[[4-[(4-Chlorophenyl)methyl]-1-piperazinyl]acetyl]-1,2-dihydro-4-[3-(trifluoromethyl)phenyl]imidazo[1,5-a]pyrimidine-8-carbonitrile] registered an inhibition at 10 µM in assay [2] of 93%.
